{"source": "patent US20160150782A1", "about": "“USE OF SELECTED PYRIDONE CARBOXAMIDES OR SALTS THEREOF AS ACTIVE SUBSTANCES AGAINST ABIOTIC PLANT STRESS” (BAYER CROPSCIENCE AKTIENGESELLSCHAFT, priority 2013, published 2016)", "key": {"[1]": {"test_system": "Zea mays (corn)", "assay": "Cold stress test on sprayed greenhouse plants, visual damage scoring (Table 1)", "format": "in vivo", "details": "efficacy = reduction in damage intensity, dosage 10 g/ha, spray WP, 600 l/ha water", "method": "Seeds of monocotyledonous and dicotyledonous crop plants are sown in sandy loam in plastic or wood-fiber pots, covered with soil or sand and cultivated in a greenhouse under good growth conditions. The test plants are treated at the early leaf stage (BBCH10-BBCH13). To assure uniform water supply before commencement of stress, the potted plants are supplied with water by dam irrigation prior to substance application.\nThe inventive compounds, formulated in the form of wettable powders (WP), are sprayed onto the green parts of the plants as an aqueous suspension at an equivalent water application rate of 600 I/ha with addition of 0.2% wetting agent (e.g. agrotin). Substance application is followed immediately by stress treatment of the plants. For this purpose, the wood-fiber pots are transferred in plastic inserts in order to prevent them from subsequently drying out too quickly.\nThe duration of the respective stress phases is guided mainly by the condition of the stressed control plants. It is ended (by re-irrigating and transfer to a greenhouse with good growth conditions) as soon as irreversible damage is observed on the stressed control plants.\nThe end of the stress phase is followed by an approx. 4-14-day recovery phase, during which the plants are once again kept under good growth conditions in a greenhouse. The duration of the recovery phase is guided mainly by when the trial plants have attained a state which enables visual scoring of potential effects, and is therefore variable.\nOnce this juncture has been reached, the intensities of damage are scored visually in comparison to untreated, unstressed controls of the same age. The damage intensity is at first assessed in percent. These values are then used to calculate the efficacy of the test compounds by the following formula:\n[formula] • E: Efficacy=reduction in damage intensity as a result of treatment with test substance • DIs: Damage intensity of the stressed control plants • DIt: Damage intensity of the plants treated with test compound […]"}, "[2]": {"test_system": "Triticum aestivum", "assay": "Drought stress test on sprayed greenhouse plants, visual damage scoring (Table 4)", "format": "in vivo", "details": "efficacy = reduction in damage intensity, dosage 250 g/ha, spray WP, 600 l/ha water", "method": "Seeds of monocotyledonous and dicotyledonous crop plants are sown in sandy loam in plastic or wood-fiber pots, covered with soil or sand and cultivated in a greenhouse under good growth conditions. The test plants are treated at the early leaf stage (BBCH10-BBCH13). To assure uniform water supply before commencement of stress, the potted plants are supplied with water by dam irrigation prior to substance application. The inventive compounds, formulated in the form of wettable powders (WP), are sprayed onto the green parts of the plants as an aqueous suspension at an equivalent water application rate of 600 I/ha with addition of 0.2% wetting agent (e.g. agrotin). Substance application is followed immediately by stress treatment of the plants. For this purpose, the wood-fiber pots are transferred in plastic inserts in order to prevent them from subsequently drying out too quickly. Drought stress is induced by gradual drying out under the following conditions: “Day”: 14 hours with illumination at 26-30° C. “Night”: 10 hours without illumination at 18-20° C. The duration of the respective stress phases is guided mainly by the condition of the stressed control plants. […] The end of the stress phase is followed by an approx. 4-14-day recovery phase, during which the plants are once again kept under good growth conditions in a greenhouse. The duration of the recovery phase is guided mainly by when the trial plants have attained a state which enables visual scoring of potential effects, and is therefore variable. […] The damage intensity is at first assessed in percent."}}, "data": [{"smiles": "Cc1cc(C(=O)NCCO)c(=O)[nH]c1C(F)(F)C(F)(F)F", "note": "[compound 265]", "values": [{"measurement": "E:E (ZEAMX)", "setting": "[1]", "result": ">5"}, {"measurement": "E (TRZAS)", "setting": "[2]", "result": ">5"}]}]}
